Laboratory results from PubChem BioAssay (NCI).
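The compound was tested at five concentrations on cells cultured in 96-well plates, with a 48-hour exposure period. TGI marks complete inhibition of growth.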

What was measured:
Experiment in all cases: NCI-60 cell line screen, 48 h
786-0 renal = test system: 786-0 renal
A498 renal = test system: A498 renal
A549 NSCLC = test system: A549 NSCLC
ACHN renal = test system: ACHN renal
CCRF-CEM leukemia = test system: CCRF-CEM leukemia
COLO 205 colon = test system: COLO 205 colon
DLD-1 colon = test system: DLD-1 colon
DMS 114 small cell lung = test system: DMS 114 small cell lung
DMS 273 small cell lung = test system: DMS 273 small cell lung
EKVX NSCLC = test system: EKVX NSCLC
HCC-2998 colon = test system: HCC-2998 colon
HCT-116 colon = test system: HCT-116 colon
HCT-15 colon = test system: HCT-15 colon
HL-60(TB) leukemia = test system: HL-60(TB) leukemia
HOP-18 NSCLC = test system: HOP-18 NSCLC
HOP-62 NSCLC = test system: HOP-62 NSCLC
HOP-92 NSCLC = test system: HOP-92 NSCLC
HT29 colon = test system: HT29 colon
IGROV1 ovarian = test system: IGROV1 ovarian
K-562 leukemia = test system: K-562 leukemia
KM12 colon = test system: KM12 colon
KM20L2 colon = test system: KM20L2 colon
LOX IMVI melanoma = test system: LOX IMVI melanoma
LXFL 529 NSCLC = test system: LXFL 529 NSCLC
M14 melanoma = test system: M14 melanoma
M19-MEL melanoma = test system: M19-MEL melanoma
MALME-3M melanoma = test system: MALME-3M melanoma
MOLT-4 leukemia = test system: MOLT-4 leukemia
NCI-H226 lung = test system: NCI-H226 lung
NCI-H23 lung = test system: NCI-H23 lung
NCI-H460 lung = test system: NCI-H460 lung
OVCAR-3 ovarian = test system: OVCAR-3 ovarian
OVCAR-4 ovarian = test system: OVCAR-4 ovarian
OVCAR-5 ovarian = test system: OVCAR-5 ovarian
OVCAR-8 ovarian = test system: OVCAR-8 ovarian
RPMI-8226 leukemia = test system: RPMI-8226 leukemia
RXF 393 renal = test system: RXF 393 renal
RXF-631 renal = test system: RXF-631 renal
SF-268 CNS = test system: SF-268 CNS
SF-295 CNS = test system: SF-295 CNS
SF-539 CNS = test system: SF-539 CNS
SK-MEL-2 melanoma = test system: SK-MEL-2 melanoma
SK-MEL-28 melanoma = test system: SK-MEL-28 melanoma
SK-MEL-5 melanoma = test system: SK-MEL-5 melanoma
SK-OV-3 ovarian = test system: SK-OV-3 ovarian
SN12C renal = test system: SN12C renal
SNB-19 CNS = test system: SNB-19 CNS
SNB-75 CNS = test system: SNB-75 CNS
SNB-78 CNS = test system: SNB-78 CNS
SR leukemia = test system: SR leukemia
SW-620 colon = test system: SW-620 colon
TK-10 renal = test system: TK-10 renal
U251 CNS = test system: U251 CNS
UACC-257 melanoma = test system: UACC-257 melanoma
UACC-62 melanoma = test system: UACC-62 melanoma
UO-31 renal = test system: UO-31 renal
XF 498 CNS = test system: XF 498 CNS

O=C1CC2CCN(C(=O)c3ccccc3)CC2CCN1 (configuration not stated)
TGI (786-0 renal): > 100 µM
TGI (A498 renal): > 100 µM
TGI (A549 NSCLC): > 100 µM
TGI (ACHN renal): > 100 µM
TGI (CCRF-CEM leukemia): > 100 µM
TGI (COLO 205 colon): > 100 µM
TGI (DLD-1 colon): > 100 µM
TGI (DMS 114 small cell lung): > 100 µM
TGI (DMS 273 small cell lung): > 100 µM
TGI (EKVX NSCLC): > 100 µM
TGI (HCC-2998 colon): > 100 µM
TGI (HCT-116 colon): > 100 µM
TGI (HCT-15 colon): > 100 µM
TGI (HL-60(TB) leukemia): > 100 µM
TGI (HOP-18 NSCLC): > 100 µM
TGI (HOP-62 NSCLC): > 100 µM
TGI (HOP-92 NSCLC): > 100 µM
TGI (HT29 colon): > 100 µM
TGI (IGROV1 ovarian): > 100 µM
TGI (K-562 leukemia): > 100 µM
TGI (KM12 colon): > 100 µM
TGI (KM20L2 colon): > 100 µM
TGI (LOX IMVI melanoma): > 100 µM
TGI (LXFL 529 NSCLC): > 100 µM
TGI (M14 melanoma): > 100 µM
TGI (M19-MEL melanoma): > 100 µM
TGI (MALME-3M melanoma): > 100 µM
TGI (MOLT-4 leukemia): > 100 µM
TGI (NCI-H226 lung): > 100 µM
TGI (NCI-H23 lung): > 100 µM
TGI (NCI-H460 lung): > 100 µM
TGI (OVCAR-3 ovarian): > 100 µM
TGI (OVCAR-4 ovarian): > 100 µM
TGI (OVCAR-5 ovarian): > 100 µM
TGI (OVCAR-8 ovarian): > 100 µM
TGI (RPMI-8226 leukemia): > 100 µM
TGI (RXF 393 renal): > 100 µM
TGI (SF-268 CNS): > 100 µM
TGI (SF-295 CNS): > 100 µM
TGI (SF-539 CNS): > 100 µM
TGI (SK-MEL-2 melanoma): 60.2 µM
TGI (SK-MEL-28 melanoma): > 100 µM
TGI (SK-MEL-5 melanoma): > 100 µM
TGI (SK-OV-3 ovarian): > 100 µM
TGI (SN12C renal): > 100 µM
TGI (SNB-19 CNS): > 100 µM
TGI (SNB-75 CNS): > 100 µM
TGI (SNB-78 CNS): > 100 µM
TGI (SR leukemia): > 100 µM
TGI (SW-620 colon): > 100 µM
TGI (TK-10 renal): > 100 µM
TGI (U251 CNS): > 100 µM
TGI (UACC-257 melanoma): > 100 µM
TGI (UACC-62 melanoma): > 100 µM
TGI (UO-31 renal): > 100 µM
TGI (XF 498 CNS): > 100 µM
